Each structure is given as a SMILES string. Active and inactive are the calls of the source. No rule for the calls is given here.

For the experiment, the target named is Peptidyl-prolyl cis-trans isomerase FKBP1A (Homo sapiens) (UniProt P62942). The experiment is described as follows: FKBP12 binders, biophysical, NMR detection (AID 608). Particulars: NMR binding, purified FKBP12.
Peptidyl-prolyl cis-trans isomerase FKBP1A (Homo sapiens), sequence (P62942 whole entry, looked up): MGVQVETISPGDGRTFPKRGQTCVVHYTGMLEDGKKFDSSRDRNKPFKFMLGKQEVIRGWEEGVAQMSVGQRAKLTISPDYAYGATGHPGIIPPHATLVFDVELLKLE
Turning to `COc1c2c(c(CC=C(C)C)c3oc(=O)c(-c4ccc(O)cc4)c(O)c13)OC(C)(C)C=C2`, the Kd is > 4 mM (inactive).

Consider `Cc1nc(N)sc1C(=O)Nc1nccs1`, for which the Kd was > 4 mM (inactive).

As to `O=C1C=CC(=O)N1c1ccccc1O`, the Kd was > 4 mM (inactive).

As to `O=C1c2ccccc2C(=O)N1OCc1ccccc1`, the Kd was > 4 mM (inactive).

With `[O-][n+]1c2ccccc2[n+]([O-])c2cc(O)ccc21`, the Kd was > 4 mM (inactive).

As to `COc1ccccc1NC(=O)/C=N/O`, the Kd is > 4 mM (inactive).

Turning to `COc1ccccc1C(=O)NC1CCN(C)CC1`, the Kd is > 4 mM (inactive).

Turning to `NC(=O)c1ccc(NC(=O)c2cccnc2)cc1`, the Kd was > 4 mM (inactive).

On to `NC(=O)NC1C=CS(=O)(=O)C1` (stereo unspecified), for which the Kd was > 4 mM (inactive).

`CC(C)CCCC(C)[C@H]1CCC2C3CC[C@H]4CC(=O)CC[C@]4(C)C3CC[C@@]21C` (stereo partly specified): the Kd was > 4 mM (inactive).

`NCC(=O)c1ccccc1`: the Kd was > 4 mM (inactive).

As to `CNS(=O)(=O)c1cccs1`, the Kd was > 4 mM (inactive).

Take `O=c1cc(O)nc(SCc2ccccc2)[nH]1`: the Kd is > 4 mM (inactive).

With `CC(=O)Nc1ccn(-c2ccccc2)n1`, the Kd was > 4 mM (inactive).

Take `CN(C)c1n[nH]c(=O)[nH]c1=O`: the Kd is > 4 mM (inactive).

On to `S=c1nc[nH]c2c1cnn2-c1ccccc1`, for which the Kd was > 4 mM (inactive).

`O=C(Nc1ccccc1)Nc1ccccc1`: the Kd is > 4 mM (inactive).

Regarding `O=c1ccc2nc3ccccc3c(=O)n2[nH]1`, the Kd is > 4 mM (inactive).

In the case of `Cc1nc2sccn2c1C(=O)O`, the Kd was > 4 mM (inactive).

For the molecule `Cc1onc(-c2ccc(F)cc2)c1C(=O)O`, the Kd is > 4 mM (inactive).

Consider `Cc1ccc2cccc(OC(=O)N3CCCC3)c2n1`, for which the Kd was > 4 mM (inactive).

`Cc1ccccc1NS(=O)(=O)c1ccc(F)cc1`: the Kd was > 4 mM (inactive).

Regarding `OCC1Cc2ccccc2N1` (stereo unspecified), the Kd was > 4 mM (inactive).

Turning to `Cc1ccc(NS(=O)(=O)c2ccc(OCC(=O)N3CCOCC3)cc2)cc1`, the Kd result is “inactive”.

Consider `CC1(C)CC2C1CCC1(C)OC2(C)CCC1O` (stereo unspecified), for which the Kd was > 4 mM (inactive).

Turning to `Cc1sc2nc3n(c(=O)c2c1C)CCCS3`, the Kd is > 4 mM (inactive).

`Cc1cc(C)n2nc(SCC(=O)c3ccccc3)nc2n1`: the Kd was > 4 mM (inactive).

As to `CS(C)=C1C(=O)NC(=O)N(c2ccccc2)C1=O`, the Kd is > 4 mM (inactive).

As to `O=C(C1CCCCC1)N1CCN(c2ccccc2F)CC1`, the Kd is > 4 mM (inactive).

For `O=C(O)c1cccnc1Oc1ccccc1`, the Kd was > 4 mM (inactive).

For `COc1c(O)cc2c(c1O)[C@H]1O[C@H](CO)[C@@H](O)[C@H](O)[C@@H]1OC2=O`, the Kd is > 4 mM (inactive).

Take `O=C(O[C@@H]1Cc2c(O)cc(O)cc2O[C@@H]1c1cc(=O)c(O)c2c(O)c(O)cc([C@H]3Oc4cc(O)cc(O)c4C[C@H]3O)c2c1)c1cc(O)c(O)c(O)c1`: the Kd was > 4 mM (inactive).

Consider `CC(=O)O[C@H]1C(=O)[C@@]2(C)C([C@H](OC(=O)c3ccccc3)[C@]3(O)C[C@H](OC(=O)[C@H](O)[C@@H](NC(=O)c4ccccc4)c4ccccc4)C(C)=C1C3(C)C)[C@]1(OC(C)=O)CO[C@@H]1C[C@@H]2O` (stereo partly specified), for which the Kd is > 4 mM (inactive).

Take `FC(F)(F)c1cccc(Cn2c(-c3cscn3)nc3ccccc32)c1`: the Kd entry is “inactive”.

Take `COC(=O)C[C@H]1C2(C)CC34OC5(C)O[C@@]6([C@H](OC)C(OC(=O)C(C)C)[C@]7(C)C(/C(=C(/OC)C(C)C)C(=O)O[C@H]7c7ccoc7)[C@@]6(O5)[C@H](OC)[C@@]3(OC)C2OC(C)=O)[C@]14C` (stereo partly specified): the Kd was > 4 mM (inactive).

As for `Cc1nnc(SCC(=O)Nc2ccccc2)[nH]c1=O`, the Kd is > 4 mM (inactive).

In the case of `COC(=O)Cc1cc(=O)n(-c2nc3ccccc3s2)[nH]1`, the Kd is > 4 mM (inactive).

For the molecule `C[C@@H]1CC[C@@]2(NC1)O[C@H]1C[C@H]3C4CC=C5C[C@@H](O)CC[C@]5(C)C4CC[C@]3(C)C1[C@@H]2C` (stereo partly specified), the Kd was > 4 mM (inactive).

Regarding `COC(=O)c1cccc(C(F)(F)F)c1`, the Kd is > 4 mM (inactive).

Take `O=C1CN(C(=O)CN2CCOCC2)c2ccccc2N1`: the Kd was > 4 mM (inactive).

Turning to `Cc1occc1C(=O)Nc1ccc(C(N)=O)cc1`, the Kd was > 4 mM (inactive).

For `O=C(O)CC1C(=O)NCCN1Cc1cccs1` (stereo unspecified), the Kd was > 4 mM (inactive).

For `Nc1cc2ccccc2cn1`, the Kd was > 4 mM (inactive).

In the case of `Cc1ccc(-c2nc(N)n(C(=O)c3cccnc3)n2)cc1`, the Kd is > 4 mM (inactive).

For `CCOC(=O)N1CCN(c2ncnc3c2cnn3C)CC1`, the Kd is > 4 mM (inactive).

Consider `COc1cccc(N2CCN(C(=O)c3cccnc3)CC2)c1`, for which the Kd is > 4 mM (inactive).

In the case of `COC(=O)C(O)c1ccccc1` (stereo unspecified), the Kd is > 4 mM (inactive).

For `CCC(C)C(=O)O[C@H]1[C@H](O)C2C(CN3CC(C)CCC3[C@@]2(C)O)C2C[C@]34O[C@]5(O)C(OC(=O)C(C)(O)CC)CC[C@@]3(C)C5C(OC(C)=O)[C@@H](OC(C)=O)C4[C@@]21O` (stereo partly specified), the Kd is > 4 mM (inactive).

As for `CC1CN(C(=O)COc2ccccc2Cl)CC(C)O1` (stereo unspecified), the Kd is > 4 mM (inactive).

As to `O=C(Nc1cccc(Cl)c1)c1cnn2cccnc12`, the Kd was > 4 mM (inactive).

Regarding `O=C(NC1=NCCS1)c1ccc2snnc2c1`, the Kd was > 4 mM (inactive).

`CN1CCN(c2nc3c(c(=O)[nH]2)CCCC3)CC1`: the Kd is > 4 mM (inactive).

Take `CC(=O)O[C@H]1C[C@@H](OC(C)=O)C(C)(C)C2CC(=O)[C@]3(C)C(CC[C@@]4(C)[C@H](c5ccoc5)OC(=O)[C@H]5O[C@]543)[C@]21C` (stereo partly specified): the Kd is > 4 mM (inactive).

For the molecule `OCc1ccc2nonc2c1`, the Kd is > 4 mM (inactive).

As for `Cc1nc2nc(Cc3ccccc3)[nH]n2c(=O)c1Cl`, the Kd was > 4 mM (inactive).

`CSc1cccc(NC(=O)c2c(Cl)cnn2C)c1`: the Kd was > 4 mM (inactive).

With `CC1=CC(C)C(C(=O)O)C(C(=O)N2CCN(C)CC2)C1` (stereo unspecified), the Kd is > 4 mM (inactive).

Consider `COc1cc(OC)c2ccc(=O)oc2c1`, for which the Kd is > 4 mM (inactive).

For `CN1CCN(CC(=O)Nc2ccccc2)CC1`, the Kd was > 4 mM (inactive).

Consider `C=C(C)[C@@H]1CC[C@]2(CO)CC[C@]3(C)[C@H](CCC4[C@@]5(C)CC[C@H](O)C(C)(C)C5CC[C@]43C)C12` (stereo partly specified), for which the Kd is > 4 mM (inactive).

With `O=C(Nn1cnnc1)c1cc2c(s1)CCCCC2`, the Kd was > 4 mM (inactive).

On to `O=C(O)CCCCCCCC(=O)O`, for which the Kd was > 4 mM (inactive).

Take `COc1ccc(NS(=O)(=O)c2ccc(N)cc2)nn1`: the Kd was > 4 mM (inactive).

On to `O=c1c2c(nc3nc(Cc4ccccc4)[nH]n13)CCC2`, for which the Kd was > 4 mM (inactive).

For the molecule `CCN(CC)c1nc2n(c(=O)n1)CCO2`, the Kd was > 4 mM (inactive).

Turning to `Cc1ccc(C(=O)N2CCC(C(=O)O)CC2)cc1`, the Kd is > 4 mM (inactive).

On to `C=C1C2CC[C@@]3(C)[C@H](c4ccoc4)OC(=O)C[C@]13O[C@H]1C[C@H](OC(C)=O)C(C)(C)[C@H](CC(=O)OC)[C@@]21C`, for which the Kd was > 4 mM (inactive).

For the molecule `CCc1c(C)n([O-])c2c([n+]1=O)CCC2`, the Kd is > 4 mM (inactive).

Consider `CC(C)(O)P(C)(=O)c1ccccc1` (stereo unspecified), for which the Kd was > 4 mM (inactive).

Consider `CN1C(=O)/C(=C/c2ccccc2O)NC1=S`, for which the Kd is > 4 mM (inactive).

As to `CN1CCC(NC(=O)C2CCCO2)CC1` (stereo unspecified), the Kd is > 4 mM (inactive).

Take `CCOC(=O)c1[nH]c(C)cc1C`: the Kd is > 4 mM (inactive).

Regarding `Cn1nc(C(=O)N2CCCC2)c2ccccc2c1=O`, the Kd was > 4 mM (inactive).

As to `COc1cc2c(cc1O)[C@@H](Cc1ccc(O)cc1)[N+](C)(C)CC2`, the Kd is > 4 mM (inactive).

`O=C(Nc1ccccc1C(F)(F)F)N1CCCCCC1`: the Kd was > 4 mM (inactive).

Consider `O=C(O)c1ccc2c(c1)OCCO2`, for which the Kd is > 4 mM (inactive).

As to `O=C(Nn1cnnc1)c1cc2c(s1)CCCC2`, the Kd was > 4 mM (inactive).

Take `OCc1ccncc1`: the Kd was > 4 mM (inactive).

In the case of `CSc1nc(C)cc(Oc2ccc(=O)n(C)n2)n1`, the Kd was > 4 mM (inactive).

On to `O=C(CC1NC(=O)NC1=O)Nc1ccccc1` (stereo unspecified), for which the Kd is > 4 mM (inactive).

`CC(O)(C(=O)O)c1ccccc1` (stereo unspecified): the Kd was > 4 mM (inactive).

Regarding `O=C(O)CNC(=O)c1ccccc1`, the Kd is > 4 mM (inactive).

On to `COCc1cc(=O)oc2cc(N)ccc12`, for which the Kd is > 4 mM (inactive).

For `NCc1n[nH]c(=O)c2ccccc12`, the Kd is > 4 mM (inactive).

In the case of `Cc1nn(CC(=O)N2CCCCC2)c(=O)c2ccccc12`, the Kd was > 4 mM (inactive).

Regarding `O=C(Nc1cccnc1)c1c(F)c(F)c(F)c(F)c1F`, the Kd is > 4 mM (inactive).

In the case of `COc1ccccc1NC(C)=O`, the Kd is > 4 mM (inactive).

Regarding `O=C1CSC(=Nc2ccccc2[N+](=O)[O-])N1`, the Kd was > 4 mM (inactive).

Take `NC(=O)C1CCN(C(=O)c2ccccc2F)CC1`: the Kd was > 4 mM (inactive).

Turning to `O=c1cc(-c2ccc(O)cc2)oc2cc(O[C@@H]3O[C@H](CO)[C@@H](O)[C@H](O)[C@H]3O[C@@H]3OC[C@](O)(CO)[C@H]3O)cc(O)c12`, the Kd is > 4 mM (inactive).

With `Cc1nnc(SCC(=O)NC2CCCC2)[nH]c1=O`, the Kd was > 4 mM (inactive).

For `NC1=NC(=O)/C(=C/c2ccccc2[N+](=O)[O-])S1`, the Kd is > 4 mM (inactive).

In the case of `Cn1c(=O)cc(O)c2ccccc21`, the Kd was > 4 mM (inactive).

Regarding `COc1ccc(-c2nc3nc(C)cc(C)n3n2)cc1`, the Kd is > 4 mM (inactive).

Take `Cc1cc(C(=O)Nc2ccccn2)no1`: the Kd is > 4 mM (inactive).

On to `CC(C)c1ccc2c(c1)CCC1[C@](C)(CN)CCC[C@]21C` (stereo partly specified), for which the Kd was > 4 mM (inactive).

The term Kd denotes the free concentration of one partner at which half of the binding sites on the other are occupied at equilibrium, for simple one-to-one binding.
